We go through ten compounds from patent publication US9884063B2, “Amido-substituted azole compounds” (Bayer Pharma Aktiengesellschaft, priority 2014, dated 2018).

The test system of assay [1] is HEK293 FOP control reporter cell line. Put plainly: HEK293 FOP Assay (FOP control vector luciferase reporter). The format is cell-based. As to conditions: Homo sapiens; HEK293 FOP control reporter cells, 16 hours, luciferase; dilution series from 50 μM. In short, it runs like this:
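Stable HEK293 line carrying the FOP vector (randomized, non-functional TCF sites; Geneticin-selected) was run in parallel with the TOP line. Cells were plated 24 h ahead at 10000/well and given recombinant human Wnt-3a at 2500–5 ng/ml. Compounds were tested at 50 μM–15 nM (3.16-fold steps) in CAFTY buffer, pH 7.4, with 2 mM Ca2+ and 0.01% BSA.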
(In a reporter assay the amount or activity of a reporter protein is the signal.)

Assay [2] has as its system wildtype Wnt signaling cascade. Briefly: HEK293 TOP Assay (Super TopFlash luciferase reporter, Wnt-3a stimulated). In kind it is cell-based. As to conditions: Homo sapiens, HEK293, 16 h. In outline:
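HEK293 cells stably carrying Super TopFlash (TOP) or FOP reporter, stimulated with recombinant human Wnt-3a (2500–5 ng/ml, two-fold steps). Both lines incubated in parallel with compound from 50 μM to 15 nM (3.16-fold) in CAFTY buffer pH 7.4 with 2 mM Ca2+ and 0.01% BSA; selectivity judged TOP vs FOP.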

Assay [3] deals with T1, TNKS2 (Homo sapiens, UniProt Q9H2K2).
T1 sequence (Q9H2K2 1-1166): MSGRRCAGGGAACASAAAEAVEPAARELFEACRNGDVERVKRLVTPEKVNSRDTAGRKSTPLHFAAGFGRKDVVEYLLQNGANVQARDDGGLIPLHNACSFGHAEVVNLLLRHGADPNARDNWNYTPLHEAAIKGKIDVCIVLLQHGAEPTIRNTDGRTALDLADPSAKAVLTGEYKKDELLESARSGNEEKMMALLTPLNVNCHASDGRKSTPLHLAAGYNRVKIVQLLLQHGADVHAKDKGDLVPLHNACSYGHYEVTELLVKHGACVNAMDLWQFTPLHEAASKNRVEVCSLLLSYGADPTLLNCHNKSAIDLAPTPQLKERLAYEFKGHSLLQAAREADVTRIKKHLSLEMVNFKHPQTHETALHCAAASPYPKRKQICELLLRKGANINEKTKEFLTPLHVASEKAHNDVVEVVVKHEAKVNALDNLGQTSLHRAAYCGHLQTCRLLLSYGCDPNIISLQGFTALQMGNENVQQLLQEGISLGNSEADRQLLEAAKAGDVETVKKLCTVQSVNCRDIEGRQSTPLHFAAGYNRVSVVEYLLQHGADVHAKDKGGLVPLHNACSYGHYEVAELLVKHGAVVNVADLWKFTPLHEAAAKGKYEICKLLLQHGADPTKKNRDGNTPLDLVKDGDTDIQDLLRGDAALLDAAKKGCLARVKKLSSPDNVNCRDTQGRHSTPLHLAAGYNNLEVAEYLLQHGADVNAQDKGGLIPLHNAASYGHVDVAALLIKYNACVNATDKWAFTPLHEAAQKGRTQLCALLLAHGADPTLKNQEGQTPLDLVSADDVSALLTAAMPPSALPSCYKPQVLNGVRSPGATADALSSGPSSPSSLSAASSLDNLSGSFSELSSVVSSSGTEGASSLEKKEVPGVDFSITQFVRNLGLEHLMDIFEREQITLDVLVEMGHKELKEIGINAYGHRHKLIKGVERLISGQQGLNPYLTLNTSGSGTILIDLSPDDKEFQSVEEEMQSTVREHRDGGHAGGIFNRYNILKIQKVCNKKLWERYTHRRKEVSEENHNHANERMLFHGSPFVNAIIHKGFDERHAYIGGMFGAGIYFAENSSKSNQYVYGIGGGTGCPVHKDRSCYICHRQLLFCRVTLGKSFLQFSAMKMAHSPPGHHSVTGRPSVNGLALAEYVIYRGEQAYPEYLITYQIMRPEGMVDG
Put plainly: Modified TNKS2 Assay 2 (auto-parsylation, [3H]-NAD+ SPA). The format is biochemical. The conditions noted are these: 6 nM TNKS2, 96 well. The procedure:
The potency of selected compounds according to the invention was assessed applying an modified in vitro inhibition assay. Here, the TNKS2 catalyzed NAD^+-dependent ribosylation of the enzyme itself (auto-parsylation) was detected using [^3H]-NAD^+ as substrate and applying the scintillation proximity assay (SPA) method to detect tritium-labeled, parsylated TNKS2. The intensity of the readout signal is proportional to the incorporated [^3H]-NAD^+. Inhibition of TNKS2 leads to a decreased incorporation of [^3H]-NAD^+ and consequently to a lower readout signal intensity. The concentration of a test compound which inhibits the enzyme activity by 50% (corresponds to half of the normed readout signal intensity) is reported as IC50.
The assay was conducted in a 96 well MTP format with the identical TNKS2 enzyme sample and NAD^+ sample as in the histone ribosylation assay with the following modifications: TNKS2 enzyme sample was diluted with a modified assay buffer (50 mM MES pH 7.0, 1 mM DTT, 0.01% Triton X-100) to a final concentration of 6 nM TNKS2 and 10×NAD^+ solution was diluted with the modified assay buffer (s. above) to a final 0.445×NAD^+ solution doped with 100 Bq/ul [^3H]-NAD^+ [Catalog #NET443H050UC, Perkin Elmer, Waltham, Mass., USA]. Substrate solution (10 ul) was incubated with different test compound concentrations (2.5 ul in 10% DMSO in modified assay buffer) or control (2.5 ul 10% DMSO in modified assay buffer only) and enzyme (10 ul) over night at room temperature. Incorporated tritium was measured after addition of 50 ul SPA beads (1 mg/ml) [Catalog #RPNQ0095 20 mg/ml, Perkin Elmer, Waltham, Mass., USA; diluted 1:10 with Dulbecco's phosphate buffered saline, PBS Catalog #D8537, Sigma-Aldrich, Steinheim, Germany] and detection of the photon emission with a beta count plate reader [Wallac MicroBeta®, Perkin Elmer, Waltham, Mass., USA].

Assay [4] deals with T2, TNKS1 (Homo sapiens, UniProt O95271).
T2 sequence (O95271 1-1327): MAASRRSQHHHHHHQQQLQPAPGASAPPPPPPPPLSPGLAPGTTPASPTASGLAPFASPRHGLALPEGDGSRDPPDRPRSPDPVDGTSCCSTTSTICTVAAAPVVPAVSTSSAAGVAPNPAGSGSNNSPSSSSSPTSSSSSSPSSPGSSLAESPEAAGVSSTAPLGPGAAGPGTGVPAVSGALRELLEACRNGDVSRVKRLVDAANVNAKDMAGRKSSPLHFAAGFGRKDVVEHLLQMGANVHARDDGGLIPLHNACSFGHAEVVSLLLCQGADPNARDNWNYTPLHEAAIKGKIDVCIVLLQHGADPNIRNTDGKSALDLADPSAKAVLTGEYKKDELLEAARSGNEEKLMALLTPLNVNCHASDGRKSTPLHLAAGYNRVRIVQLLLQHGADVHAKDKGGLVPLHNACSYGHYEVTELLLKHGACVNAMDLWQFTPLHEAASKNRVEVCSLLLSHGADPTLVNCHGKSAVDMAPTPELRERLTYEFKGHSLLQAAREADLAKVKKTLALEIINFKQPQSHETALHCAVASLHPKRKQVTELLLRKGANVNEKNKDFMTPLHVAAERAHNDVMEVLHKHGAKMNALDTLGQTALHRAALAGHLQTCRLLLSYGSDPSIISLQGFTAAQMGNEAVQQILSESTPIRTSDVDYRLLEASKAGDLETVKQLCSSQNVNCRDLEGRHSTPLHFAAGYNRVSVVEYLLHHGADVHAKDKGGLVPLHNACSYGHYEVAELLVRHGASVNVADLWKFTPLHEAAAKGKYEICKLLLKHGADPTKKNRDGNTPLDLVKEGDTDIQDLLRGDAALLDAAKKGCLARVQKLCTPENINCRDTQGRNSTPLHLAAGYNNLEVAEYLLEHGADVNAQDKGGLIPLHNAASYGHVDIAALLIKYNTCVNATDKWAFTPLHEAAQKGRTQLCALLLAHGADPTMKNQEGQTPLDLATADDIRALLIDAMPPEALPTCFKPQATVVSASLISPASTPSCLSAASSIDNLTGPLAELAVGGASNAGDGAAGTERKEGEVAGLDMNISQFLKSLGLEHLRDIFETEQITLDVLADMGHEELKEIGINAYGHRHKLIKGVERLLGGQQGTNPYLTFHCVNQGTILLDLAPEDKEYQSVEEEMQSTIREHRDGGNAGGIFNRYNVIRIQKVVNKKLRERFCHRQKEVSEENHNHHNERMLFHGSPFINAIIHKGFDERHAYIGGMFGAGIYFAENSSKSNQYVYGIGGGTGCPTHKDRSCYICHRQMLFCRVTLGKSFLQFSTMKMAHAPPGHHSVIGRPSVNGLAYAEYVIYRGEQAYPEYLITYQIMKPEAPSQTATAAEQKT
Put plainly: Modified TNKS1 Assay 3 (BPS kit #80573, biotin-NAD+, 96 well). The format is biochemical. The conditions noted are these: human TNKS1, BPS kit #80573, 96 well. The procedure: The potency of the compounds against human TNKS1 according to the invention was assessed using a commercially available biotin/streptavidin binding assay kits from BPS Bioscience, San Diego, USA (Catalog #80573 for TNKS1). The incorporation of a biotin-labeled NAD+ during the […] catalyzed ribosylation of a suitable protein substrate was detected using with a streptavidin-HRP coupled chemi-luminescent readout. The intensity of the readout signal is proportional to the incorporated NAD^+. Inhibition of TNKS1 leads to a decreased incorporation of NAD^+ and consequently to a lower readout signal intensity in the corresponding TNKS1 assays. The concentration of a test compound that inhibits the enzyme activity by 50% (corresponds to half of the normed readout signal intensity) is reported as IC50. The assay was conducted in a 96 well MTP format according to the manufacturer's protocol and using a BMG Pherastar MTP reader [BMG-Labtech, Offenburg, Germany].

[5] abbreviates: HEK293 TOP reporter cell line, Wnt-3a at EC50, 16 hours incubation, compound dilution series 50 μM to 15 nM.

On to `CNC(=O)c1nc[nH]c1C(=O)Nc1ccc(NC(=O)c2cccnc2Cl)cc1` [Example 2, N^5-(4-{[(2-chloropyridin-3-yl)carbonyl]amino}phenyl)-N^4-methyl-1H-imidazole-4,5-dicarboxamide], for which the IC50 in assay [1] is ≥ 50 µM; in assay [2] (setting [5]), 7.05 µM; in assay [2] (HEK293 TOP reporter cells, Wnt3a at EC50, 16 hours, luciferase), 6.1 µM; in assay [3], > 10 µM.

Take `O=C(Nc1ccc(NC(=O)c2[nH]cnc2C(=O)NCCN2CCCCC2)cn1)c1ccccc1Cl` [Example 114, N^5-{6-[(2-chlorobenzoyl)amino]pyridin-3-yl}-N^4-[2-(piperidin-1-yl)ethyl]-1H-imidazole-4,5-dicarboxamide]: the values for the IC50 in assay [2] (setting [5]) and in assay [4] were 0.07 µM and < 0.0005 µM, respectively.

As for `O=C(Nc1ccc(NC(=O)c2nc[nH]c2C(=O)NCCN2CCC(O)CC2)cc1)c1ccc(F)cc1Cl` [Example 212, N^4-{4-[(2-chloro-4-fluorobenzoyl)amino]phenyl}-N^5-[2-(4-hydroxypiperidin-1-yl)ethyl]-1H-imidazole-4,5-dicarboxamide], the values for the IC50 in assay [2] (setting [5]) and in assay [4] were 0.07 µM and 0.005 µM, respectively.

Take `CNC(=O)c1nc[nH]c1C(=O)Nc1ccc(NC(=O)c2ccccc2S(C)(=O)=O)cc1` [Example 249, N^4-methyl-N^5-(4-{[2-(methylsulfonyl)benzoyl]amino}phenyl)-1H-imidazole-4,5-dicarboxamide]: the IC50 in assay [2] (setting [5]) is 2.4 µM; in assay [3], 5.7 µM.

As for `CCNC(=O)c1nc[nH]c1C(=O)Nc1ccc(NC(=O)c2ccc(OC(F)F)cc2F)cc1` [Example 258, N^5-(4-{[4-(difluoromethoxy)-2-fluorobenzoyl]amino}phenyl)-N^4-ethyl-1H-imidazole-4,5-dicarboxamide], the values for the IC50 in assay [2] (setting [5]) and in assay [3] were 4.5 µM and > 10 µM, respectively.

For the compound `CCNC(=O)c1nc[nH]c1C(=O)Nc1ccc(NC(=O)c2ccc(OC(F)(F)F)cc2F)cc1` [Example 262, N^4-ethyl-N^5-(4-{[2-fluoro-4-(trifluoromethoxy)benzoyl]amino}phenyl)-1H-imidazole-4,5-dicarboxamide], the values for the IC50 in assay [2] (setting [5]) and in assay [3] were 8.7 µM and > 10 µM, respectively.

Regarding `COC1CCN(CCNC(=O)c2[nH]cnc2C(=O)Nc2ccc(NC(=O)c3ccc(F)cc3Cl)cc2)C1` (stereo not shown) [Example 265, N^4-{4-[(2-chloro-4-fluorobenzoyl)amino]phenyl}-N^5-[2-(3-methoxypyrrolidin-1-yl)ethyl]-1H-imidazole-4,5-dicarboxamide], the IC50 in assay [2] (setting [5]) was determined as 0.12 µM; in assay [4], 0.007 µM.

Take `O=C(Nc1ccc(NC(=O)c2nc[nH]c2C(=O)NCCN2CCC[C@@H](O)C2)cc1)c1ccc(F)cc1Cl` [Example 272, N^4-{4-[(2-chloro-4-fluorobenzoyl)amino]phenyl}-N^5-{2-[(3R)-3-hydroxypiperidin-1-yl]ethyl}-1H-imidazole-4,5-dicarboxamide]: the results for the IC50 in assay [2] (setting [5]) and in assay [4] were 0.12 µM and 0.07 µM, respectively.

On to `CNC(=O)c1nc[nH]c1C(=O)Nc1ccc(NC(=O)c2ccccc2F)cc1` [Example 326, N^5-{4-[(2-fluorobenzoyl)amino]phenyl}-N^4-methyl-1H-imidazole-4,5-dicarboxamide], for which the IC50 in assay [2] (setting [5]) was 3 µM; in assay [3], > 10 µM.

As to `CC(C)[C@@H](CO)NC(=O)c1nc[nH]c1C(=O)Nc1ccc(NC(=O)c2ccc(F)cc2Cl)cc1` [Example 379, N^5-{4-[(2-chloro-4-fluorobenzoyl)amino]phenyl}-N^4-[(2S)-1-hydroxy-3-methylbutan-2-yl]-1H-imidazole-4,5-dicarboxamide], the IC50 stood at 3.2 µM in assay [2] (setting [5]) and 0.19 µM in assay [4].

A word on the IC50: it is the concentration that gives 50% inhibition. A high value points to lower potency.
